According to patent publication US20130338115A1, “USE OF MITOCHONDRIALLY-ADDRESSED COMPOUNDS FOR PREVENTING AND TREATING CARDIOVASCULAR DISEASES” (Mitotech SA, priority 2007, published 2013):

What was measured:
[1] = tested on: rat heart; settings: pre-perfusion of rat heart; Kutala et al. 2006; cited from earlier work
[2] = tested on: Wistar male rats; assay: Regional myocardial ischemia and reperfusion in anesthetized rats; assay type: in vivo, rat
Experimental: To study a possibility of reduction of the irreversible damage of cardiomyocytes by SkQ1 in vivo a model of regional myocardial ischemia and reperfusion in anesthetized rats was used. Experiments were performed on Wistar male rats weighing 300-450 grams, fed a standard diet. In the control animals during three weeks received NaBr dissolved in 0.1 M phosphate buffer (pH 6.0), at a dose of 250 nmol/kg body weight/day. Animals of the experimental group during three weeks together with food received SkQ1 dissolved in 0.1 M phosphate buffer (pH 6.0), at a dose of 250 nmol/kg body weight/day.
In urethane-anesthetized animals ([…] body weight intraperitoneally administered), artificial ventilation of the lungs with room air with added oxygen at a rate of 60-80 beats per minute was carried out. Indicators of the acid-base balance of arterial blood (pH, pO2 and pCO2) during the entire experiment were controlled with the use of acid-base gas analyzer ABL-30 (Radiometer) and maintained at a physiological level.
Catheterization of the carotid artery was performed for recording arterial pressure (Mingograf 804, Siemens-Elema). The chest was opened by longitudinal dissection of the sternum and the heart was freed from the pericardium. To induce regional myocardial ischemia, the left ventricle was pierced with an atraumatic needle 5-0 under the left appendage in the direction perpendicular to long axis of the heart. Tightening the ligature at the anterior descending coronary artery (ADA) located deep in the pierced myocardium ceased blood supply to a portion of the myocardium, weakening of the ligature restored coronary flow.
The dissection is followed by a 30-min period of stabilization of hemodynamic parameters (the initial state). Then anterior descending coronary artery was occluded for 40 min followed by 60 min of reperfusion. At the end of the experiment, to identify the risk zone (RZ) and the intact zone, anterior descending coronary artery was occluded and a 2% Evans solution (2 ml) was injected as a bolus into the jugular vein. Then the heart was cut out and the left ventricle (LV) was separated and frozen at −20° C.
To measure infarct size, the method for histochemical localization of the risk zone (RZ) and myocardial infarction (MI) by tissue staining with 2,3,5-triphenyltetrazolium chloride (TFT) was used (Kitakaze M., Takashima S., Funaya H., Minamino T., Node K., Shinozaki Y., Mori H., Hori M., 1997. Temporary acidosis during reperfusion limits myocardial infarct size. Am. J. Physiol.; 272: H2071-H207). […] The obtained samples were scanned, MI and RZ sizes were determined by the method of computer-assisted planimetry using the Imagecal program. […]

[3] = tested on: isolated hearts of Wistar rats; assay: H2O2-induced development of arrhythmias in isolated rat hearts after 3 weeks oral SkQ1; assay type: in vivo; settings: for normal rhythm maintained, % of the experiments: hydrogen peroxide 100 μm into coronary bed
Experimental: Wistar rats received preparation SkQ1 daily for 3 weeks at doses of 2.0, 0.2 and 0.02 nmol/kg body weight by its addition to the curd. In the control group of animals, the feed was supplemented with sodium bromate in a similar dose. Experiments on isolated hearts were performed 1-2 days after the end of administration of the preparations by a standard technique under conditions of retrograde perfusion of the heart with a controlled rate of perfusion and a measurement of spontaneous heart rate. The effect of SkQ1 on the incidence of arrhythmias induced by injection of hydrogen peroxide (100 μm) into the coronary bed of hearts was studied. This model reproduces some features of a situation of oxidative stress that develops during reperfusion of ischemic heart.

[4] = SkQ1 250 nmol/kg body weight/day with food for three weeks, initial state

Row | Structure (SMILES) | reduction of infarct size caused by subsequent ischemia/reperfusion [1] [times] | RZ/LV (risk zone/weight of the left ventricle), difference between the groups ([2]; 250 nmol/kg body weight/day, three weeks, 40 min occlusion, 60 min reperfusion) | MI/RZ ratio (myocardial infarction/risk zone), times less as compared to the control ([2]; 250 nmol/kg body weight/day, three weeks, 40 min occlusion, 60 min reperfusion, P<0.005) [times] | effect on blood pressure [2, 4] | effect on heart rate [2, 4] | normal rhythm maintained, % of the experiments ([3]; SkQ1 0.02 nmol/kg daily for 3 weeks) [%] | normal rhythm maintained, % of the experiments ([3]; SkQ1 0.2 nmol/kg daily for 3 weeks) [%] | number of hearts with documented normal rhythm ([3]; SkQ1 0.2 nmol/kg, 23 experiments) [hearts] | normal rhythm maintained, % of the experiments ([3]; SkQ1 2.0 nmol/kg daily for 3 weeks) [%]
1 | CC1(C)CC(O)CC(C)(C)N1[O] [Tempol] | 1.5 |  |  |  |  |  |  |  | 
2 | CC1=C(C)C(=O)C(CCCCCCCCCC[P+](c2ccccc2)(c2ccccc2)c2ccccc2)=CC1=O [SkQ1] |  | no differences | 1.7 | No effect | No effect | 55 | 70 | 16 | 58
